What was measured:
[1] = tested on: induced pluripotent stem cell-derived hepatocytes (iHep) suspension; assay: In vitro hepatocyte clearance in iHep suspension, targeted LC-MS/MS and GC-MS/MS; assay type: in vitro ADME, human; conditions: 1 µM equimolar mixture, approximate values
Procedure: (§1) Suspension assays using iHep were performed as previously detailed with slight modification. In brief, pre-differentiated iHep were suspended in iHep maintenance media and adjusted to the cell concentration of 1 × 10^6 cells/mL. A portion of the cell working stock was heated at 95 °C for five minutes to serve as negative control. Five hundred microliters of the chemical stock (20 chemicals, 2 or 10 µM each) were spiked in 500 µL of the cell working stock or heat-inactivated cell control to a final cell density of 5 × 10^5 cells/mL. Fifty microliters were removed subsequently at 0, 60, 120, and 240 min to individual 1.5 mL Eppendorf tubes for further sample extraction detailed below. Each experimental condition was replicated three times.
Sample extraction procedures and chromatographic conditions were previously reported in [34]. In brief, each sample (50 µL) was spiked with 10 µL of 10 µM internal standards, mixed with 100 µL of chilled acetonitrile, and then centrifuged at 10,000× g for 5 min. The supernatant was dried under vacuum using SpeedVac (Savant SPD1010, Beckman Coulter, Brea, CA, USA) and reconstituted with 50 µL of aqueous mobile phase prior to analyses. LC-MS/MS analysis was performed using 1290 Infinity II LC and 6470 triple quadrupole mass spectrometer (both instruments from Agilent Technologies, Santa Clara, CA, USA). Sample extract (10 µL) was chromatographed on a ZORBAX SSHD Eclipse Plus C18 column (3.0 × 50 mm, 1.8 µm, Cat No.: 959757-302; Agilent Technologies) with a guard column (2.1 × 5 mm, 1.8 µm, Cat No.: 821725-901; Agilent Technologies), and ionized using electrospray ionization. Analytical response was acquired in both positive and negative modes.
For positive ion compounds, mobile phases consisted of 0.1% formic acid in water (A) and 0.1% formic acid in methanol (B) using the following gradient: 2% B held for 1 min, B increased to 80% by 3 min, B increased to 95% by 4 min, B decreased to 2% by 5 min and held for 3 min for a total run time of 8 min per sample at a flow rate of 0.4 mL/min. For negative ion compounds, the LC gradient and flow rate were the same as in positive mode, except that mobile phase A was water and mobile phase B was acetonitrile.
Fifty microliters of media sample were spiked with 10 µL of 10 µM internal standards, mixed with 50 µL of methanol and 200 µL of pentane: diethyl ether (1:1 v/v), vortexed briefly, and then centrifuged at 600× g for 5 min. Organic layer supernatants were transferred to a 2 mL amber vial and concentrated under nitrogen prior to GC analysis. Detection of analytes was achieved using a 7890B GC and 7010B triple quadrupole mass spectrometer (both from Agilent Technologies). Samples were injected (1 µL) in splitless mode. Analytes were separated with a VF-5ms GC column (60 m × 250 µm × 0.25 µm, Cat No.: CP8960; Agilent Technologies) and ionized using electron ionization. The column head pressure was set at 21.5 psi (148,237 Pa) with a constant flow rate at 1.2 mL/min using helium gas. Initial column temperature was held at 70 °C for 5 min, increased to 150 °C at 50 °C/min, ramped to 280 °C at 4 °C/min, and then held […]. The total run time was 42.1 min. The injector temperature was set at 250 °C. The ion source and auxiliary transfer line temperatures were 300 °C. Electron multiplier voltage was set at 1884 V. Ultra-high purity nitrogen gas was used as the collision gas for all MS/MS experiments, and collision gas pressure was set at 16.8 psi (115,832 Pa).
In vitro hepatocyte clearance (Clin vitro) of each chemical was estimated by substrate depletion approach assuming first-order kinetics for compound elimination: Clin vitro = kV/N, where k = first-order elimination rate constant, V = incubation volume, and N = number of cells in the incubation. […]

[2] = tested on: induced pluripotent stem cell-derived hepatocytes (iHep) suspension; assay: iHep suspension, nontargeted IMS-MS analysis (clearance, metabolite formation, mass balance); assay type: in vitro ADME, human; conditions: for CLHep average, Nontargeted Analyses (IMS-MS): 1µM mixture; for Level of metabolism through nontargeted methods: % remaining by IMS-MS
Procedure: as §1
All nontargeted analyses were performed using a 6560 IMS-QTOF MS (Agilent Technologies) as detailed previously. All individual standards for pesticide parent compounds (n = 20) and known metabolites (n = 10) were directly injected in triplicate into the electrospray ionization (ESI) source (positive and negative mode) and atmospheric pressure photo-ionization (APPI, negative mode only) to obtain collision cross section (CCS) and mass-to-charge ratio (m/z) values. Blanks were injected between standards to reduce the likelihood of carryover. For sample analyses, ESI was chosen as the optimal source to detect analytes in either positive or negative mode. During IMS-MS analyses, ions were passed through the inlet glass capillary, focused by a high-pressure ion funnel, and accumulated in an ion funnel trap. Next, ions were pulsed into the 78.24 cm-long IMS drift tube filled with nitrogen gas at a pressure of approximately 3.95 torr (527 Pa). Ions exiting the drift tube were refocused by a rear ion funnel prior to quadrupole time-of-flight (QTOF) MS detection. Detailed instrumental settings in ESI mode can be found in Table S1. Prior to instrumental analysis, the IMS-MS was tuned and a mass calibration was performed using Agilent Tune Mix from the manufacturer (Cat No.: G2421-60001, Agilent Technologies).
In vitro hepatocyte clearance (Clin vitro) of each chemical was estimated by substrate depletion approach assuming first-order kinetics for compound elimination: Clin vitro = kV/N, where k = first-order elimination rate constant, V = incubation volume, and N = number of cells in the incubation. Clin vitro was further scaled up to the intrinsic hepatocyte clearance (Clint) according to the equation [38]:Clint = Clin vitro × HPGL × Vl(1) where HPGL = hepatocytes per gram liver (137 × 10^6 cells/g) and Vl = volume of the whole liver (1820 g).

Row | Structure (SMILES) | Clearance rate in suspension cultures [1] [µL/min/10^6 hepatocytes] | CLHep average, Nontargeted Analyses (IMS-MS) [2] [µL/min/106 hepatocytes] | Level of metabolism through nontargeted methods ([2]; 1 µM mixture) | Metabolite formation (IMS-MS abundance) ([2]; 1 µM mixture, relative abundance among the five detected metabolites)
1 | O=[N+]([O-])c1ccc(O)c([N+](=O)[O-])c1 [2,4-Dinitrophenol] | 5 to 14 | 8.886 | high levels of metabolism | –
2 | COP(=S)(OC)SCn1nnc2ccccc2c1=O [Azinphos-methyl] | 5 to 14 | 8.987 | high levels of metabolism | –
3 | CCOP(=S)(OCC)Oc1nc(Cl)c(Cl)cc1Cl [Chlorpyrifos] | 5 to 14 | 7.82 | high levels of metabolism | –
4 | CCOP(=S)(OCC)Oc1cc(C)nc(C(C)C)n1 [Diazinon] | 5 to 14 | 2.285 | – | –
5 | CCOP(=S)(OCC)SCCSCC [Disulfoton] | 5 to 14 | 5.305 | high levels of metabolism | –
6 | CCOP(=S)(OCC)SCSP(=S)(OCC)OCC [Ethion] | 5 to 14 | 5.216 | high levels of metabolism | –
7 | CCOP(O)(=S)OCC [diethylthiophosphate] | – | – | – | formed at the highest amount
